Assays:
[1] = test system: Ras-V12-IRES-Cre-ER-shp53 HGG; assay: Histology and immunostaining of Ras-V12-IRES-Cre-ER-shp53 tumors after tamoxifen or oil; type: in vivo, mouse
Procedure: (§1) Tissue preparation and immunohistochemistry on brain tumors and immunofluorescence staining were performed as previously described (26, 50, 51). In histograms, values represent the mean values; error bars are standard deviations (SD) or standard error of the mean (SEM) as indicated in Figure legends. Statistical significance was determined by t test (two-tailed) using GraphPad Prism 4.0 software (GraphPad Inc., San Diego, Calif.). Quantification of the IL-6 intensity staining in was performed using NIH Image J software (http://rsb.info.nih.gov/ij/). The histogram of the intensity of fluorescence of each point of a representative field for each condition was generated. The fluorescence intensity of three fields from three independent tumors was scored, and standardized to the number of cells in the field.
Intracranial injection of Ras-V12-IRES-Cre-ER-shp53 lentivirus was performed in 4-week-old Id-cTKO mice in accordance with guidelines of the […] Animal Care and Use Committee. Briefly, 1.3 μl of purified lentiviral particles in PBS (1×10^9/ml) were injected 1.45 mm lateral and 1.6 mm anterior to the bregma, and 2.3 mm below the skull using a stereotaxic frame (Kopf Instruments). Orthotopic implantation of mouse glioma cells was performed as described using 50,000 cells in 2 μof phosphate buffer (26). […] Mice were monitored daily and sacrificed when neurological symptoms appeared. Tumor volume was obtained using three-dimensional measurements in the formula for an ellipsoid: [Length×Width×Height×(π/6)]. The dimensions were derived from a complete, H&E stained, histological sectioning of the mouse brain. The length was determined by counting the number of sections containing tumor cells and multiplying it by the section thickness. […] Kaplan-Meier survival curve was generated using the DNA Statview software package (AbacusConcepts, Berkeley, Calif.).

[2] = test system: SSEA1 and ITGα6 positive GICs; assay: Proximity of GICs to CD31 positive endothelial cells in the perivascular niche; type: in vivo, mouse; details: Id-cTKO tumors versus controls
Procedure: as §1

[3] = test system: GICs from HrasV12-Cre-ER-shp53 glioma; assay: Glioma sphere formation and limiting dilution assay; type: cell-based, mouse
Procedure: For human and mouse glioma sphere formation, cells were infected with lentiviral particles. Three days later single cells were plated at density of ≦3 cells/well in triplicate in low attachment 96 well plates. The number and the size of spheres were scored after 10-14 days. Limiting dilution assay was performed as described previously (24). Spheres were dissociated into single cells and plated in 96-well plates in 0.2 ml of medium containing growth factors. Cultures were left undisturbed for 10 days, and then the percentage of wells not containing spheres for each cell dilution was calculated and plotted against the number of cells per well. Linear regression lines were plotted, and the number of cells required to generate at least one sphere in every well (=the stem cell frequency) was calculated. The experiment was repeated twice.

[4] = test system: Ras-V12-IRES-Cre-ER-shp53 HGG; assay: Survival of glioma-bearing Id-cTKO mice treated with tamoxifen or oil; type: in vivo, mouse

## CC/C(=C(\c1ccccc1)c1ccc(OCCN(C)C)cc1)c1ccccc1 [tamoxifen]
[1]; Id-cTKO mice sacrificed six weeks after tumor initiation
  tumors with dramatic reduction of tumor volume compared with carrier-treated tumors: 80%
[1]; Id-cTKO mice, six weeks after tumor initiation, versus control tumors
  reduction in the proliferation rate measured by Ki67 immunoreactivity: four-fold
[1]; seven days after a single four-day cycle of tamoxifen treatment
  ID1 and ID2 expression in advanced tumors by immunofluorescence: loss of ID1 and ID2 expression
[2]
  reduction of the fraction of GICs residing within 10 μm from CD31-positive cells: five-fold
[3]; GICs derived from Id1wt/wt;Id2wt/wt;Id3-/- mice
  tumor-sphere forming capacity: no effect
[3]; GICs isolated from Id-cTKO mice
  tumor-sphere forming capacity: abolished
[3]; limiting dilution, cells from freshly dissociated tumors of treated animals, control 3.84%±0.51
  minimal frequency of glioma cells endowed with stem cell capacity: 0.29%±0.02
[4]; Id-cTKO mice, HrasV12-Cre-ER-shp53 lentivirus, tamoxifen by feeding needle, 4-day cycles from day 12, seven of eleven mice
  mice alive after a median of twenty weeks: 64%
[4]; wild type animals infected with HrasV12-Cre-ER-shp53 lentivirus (without ID ablation), data not shown
  tumor growth: did not affect tumor growth

Reference: US20180030546A1, “Identification of a 5-Gene Expression Signature Predicting Clinical Outcome of Patients with Brain Tumors” (THE TRUSTEES OF COLUMBIA UNIVERSITY IN THE CITY OF NEW YORK, priority 2012, published 2018)
